Experimental data reported in US20110143197A1, “ELECTRODE ACTIVE MATERIAL FOR POWER STORAGE DEVICE AND POWER STORAGE DEVICE, AND ELECTRONIC EQUIPMENT AND TRANSPORTATION EQUIPMENT” (priority 2008, published 2011).

Tests used:
[1] = Cyclic voltammetry of evaluation battery (electrode properties), Test Example 2; type: physicochemical
Method: The electrode properties of the phenanthrenequinone-containing compound (1a) obtained in Example 1 were examined in the following manner. First, in an argon box equipped with a gas purifier, 20 mg of the phenanthrenequinone-containing compound (1a) serving as an electrode active material and 20 mg of acetylene black serving as a conductive auxiliary agent were uniformly mixed under an argon gas atmosphere. To the resultant mixture was added 1 ml of N-methyl-2-pyrrolidone serving as a solvent, and 5 mg of polyvinylidene fluoride serving as a binder was further added thereto, followed by uniform mixing, to prepare a black slurry. The binder was used in order to bond the electrode active material and the conductive auxiliary agent together.
The slurry thus obtained was applied to the surface of a 20 μm-thick aluminum foil (current collector), and vacuum-dried for 2 hours at room temperature. After drying, a disc having a diameter of 13.5 mm was punched out of the resultant structure to produce an electrode in which an active material layer containing a mixture of the electrode active material, the conductive auxiliary agent, and the binder was formed.
The electrode thus obtained was used as a working electrode, and metal lithium was used for a counter electrode and a reference electrode. These electrodes were immersed in an electrolyte to fabricate an evaluation battery, and the potential sweeping was performed in a potential range from 2.0 to 4.0 V relative to lithium. The sweeping rate was 0.1 mV/sec. As the electrolyte, a liquid electrolyte prepared by dissolving lithium fluoroborate in a concentration of 1.0 mol/L in a solvent mixture containing propylene carbonate and ethylene carbonate (volume ratio 1:1) was used. FIG. 4 is a cyclic voltammogram of the evaluation battery using the electrode active material of the present invention [phenanthrenequinone-containing compound (1a)].

[2] = Solubility in an electrolyte (ultraviolet-visible absorption spectrum and visual inspection), Test Example 1; type: physicochemical; settings: 5.0 mmol/l in 1.0 mol/L lithium fluoroborate in propylene carbonate
Method: The solubility of the phenanthrenequinone-containing compounds and the phenanthrenequinone-containing polymers obtained in Examples 1 to 10 in an electrolyte was evaluated in the following manner.
A phenanthrenequinone-containing compound or a phenanthrenequinone-containing polymer as obtained in Examples 1 to 10 was mixed with 20 cc of an electrolyte so as to attain a concentration of 5.0 mmol/l, thereby giving a test liquid. This test liquid was subjected to ultraviolet-visible absorption spectrum measurement to examine the solubility of each compound in the electrolyte. The ultraviolet-visible absorption spectrum measurement was performed under the following measurement conditions: a measurement range of 190 to 900 nm and a reference solution of a liquid electrolyte. A UV-2550 (trade name) manufactured by SHIMADZU CORPORATION was used as the measurement apparatus. A liquid electrolyte prepared by dissolving lithium fluoroborate in a concentration of 1.0 mol/L in propylene carbonate was used as the electrolyte.
As a comparative example, a solubility test was performed in the same manner as described above using 9,10-phenanthrenequinone.

[3] = Coin battery charge-discharge test (metal lithium negative electrode), Test Example 3
Excerpt: A coin battery as shown in FIG. 5 was fabricated as one example of the power storage device of the present invention. FIG. 5 is a vertical cross-sectional view schematically showing a configuration of a coin battery 1 that is one example of the power storage device of the present invention.
A positive electrode includes a positive electrode current collector 12 made of an aluminum foil and a positive electrode active material layer 13 formed on the positive electrode current collector 12 and containing the phenanthrenequinone-containing compound (1a). The positive electrode was produced in the same manner as in the electrode production method in Test Example 2. This positive electrode was disposed such that the positive electrode current collector 12 was brought into contact with the inner surface of a case 11, and a separator 14 made of a porous polyethylene sheet was placed on the positive electrode.
Then, a non-aqueous electrolyte was injected into the case 11. As the non-aqueous electrolyte, an electrolyte prepared by dissolving lithium hexafluorophosphate in a concentration of 1.25 mol/L in a solvent mixture containing ethylene carbonate and ethylmethyl carbonate (weight ratio 1:3) was used. […]
The charge-discharge capacity was calculated based on the initial discharge capacity of each of the coin batteries. […]

[4] = relative to lithium, sweep 2.0 to 4.0 V, 0.1 mV/sec

SMILES | reversibility of redox reaction ([1]; cyclic voltammogram, FIG. 4) | dissolution from the electrode ([1]; during potential sweeping in liquid electrolyte) | current peak indicating the oxidation reaction [1, 4] | current peak indicating the second-step reduction reaction [1, 4] | current peak indicating the first-step reduction reaction ([1]; relative to lithium, sweep 2.0 to 4.0 V, 0.1 mV/sec, 1.0 mol/L lithium fluoroborate in propylene carbonate/ethylene carbonate 1:1) | observation by visual inspection of electrolyte (coloration, dissolution) [2] | absorption peak in ultraviolet-visible absorption spectrum of test liquid (solubility in electrolyte) ([2]; measurement range 190 to 900 nm) | appearance of electrolyte when battery disassembled after charging and discharging [3]
O=C1C(=O)c2cc(-c3ccc(-c4ccc5c(c4)C(=O)C(=O)c4ccccc4-5)cc3)ccc2-c2ccccc21 [Compound 1a, 1,4-(9,10-phenanthraquinone)-benzene] | underwent a reversible redox reaction | no dissolution | around 3.5 V | around 2.6 V | around 3.1 V |  |  | 
O=C1C(=O)c2ccccc2-c2ccccc21 [9,10-phenanthrenequinone] |  |  |  |  |  | colored in yellow, as a result of the compound being entirely dissolved in the electrolyte | a large absorption peak was observed near 250 to 350 nm | green coloration of the electrolyte
